The values below are quoted from earlier work in patent publication US10064816B2, “Treatment of sexual dysfunction” (ReJoy, priority 2015, dated 2018).

The test system of the data set is arrector pili muscle. Conditions: 1% w/v, iontophoresis.

As to `CNC[C@H](O)c1cccc(O)c1` [phenylephrine], the “piloerection on the forearm” value is given as “can activate the piloerection”.
